Where “and” joins values, the source holds several entries; their conditions need not be identical. Equal entries are not always repeated. Each block holds one molecule with its values, some of them ahead of it.
Key:
[1] = target: T1, Sodium/hydrogen exchanger 1 (Homo sapiens, UniProt P19634)
Carbonic anhydrase 2 [2] = target: T2, Carbonic anhydrase 2 (Homo sapiens, UniProt P00918)
MCF7 = assay: cells; settings: Homo sapiens
HepG2 = assay: cells; settings: Homo sapiens
A549 = assay: cells; settings: Homo sapiens
Raji = assay: cells; settings: Homo sapiens, 96 h
Carbonic anhydrase 2 [3] = target: T2, Carbonic anhydrase 2; remark: listed apart in the source
[4] = target: T1, Sodium/hydrogen exchanger 1; format: cell-based, Platelet
[5] = target: T1, Sodium/hydrogen exchanger 1; remark: listed apart in the source
[6] = target: T3, Monocarboxylate transporter 4 (Homo sapiens, UniProt O15427)
T3 sequence (O15427 whole entry): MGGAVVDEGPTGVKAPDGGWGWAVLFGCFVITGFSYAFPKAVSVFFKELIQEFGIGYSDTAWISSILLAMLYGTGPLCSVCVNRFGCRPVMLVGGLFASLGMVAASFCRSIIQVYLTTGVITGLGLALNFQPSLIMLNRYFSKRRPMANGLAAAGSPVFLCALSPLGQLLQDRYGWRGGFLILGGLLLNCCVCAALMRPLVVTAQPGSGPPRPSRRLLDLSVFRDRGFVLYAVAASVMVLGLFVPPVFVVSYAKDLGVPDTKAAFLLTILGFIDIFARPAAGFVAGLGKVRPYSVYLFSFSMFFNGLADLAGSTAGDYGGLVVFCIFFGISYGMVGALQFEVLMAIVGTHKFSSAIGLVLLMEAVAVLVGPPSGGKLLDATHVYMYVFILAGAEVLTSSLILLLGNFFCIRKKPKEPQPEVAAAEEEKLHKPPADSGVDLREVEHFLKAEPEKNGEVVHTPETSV

[7] = target: T4, Monocarboxylate transporter 1 (Homo sapiens, UniProt P53985)
T4 sequence (P53985 whole entry): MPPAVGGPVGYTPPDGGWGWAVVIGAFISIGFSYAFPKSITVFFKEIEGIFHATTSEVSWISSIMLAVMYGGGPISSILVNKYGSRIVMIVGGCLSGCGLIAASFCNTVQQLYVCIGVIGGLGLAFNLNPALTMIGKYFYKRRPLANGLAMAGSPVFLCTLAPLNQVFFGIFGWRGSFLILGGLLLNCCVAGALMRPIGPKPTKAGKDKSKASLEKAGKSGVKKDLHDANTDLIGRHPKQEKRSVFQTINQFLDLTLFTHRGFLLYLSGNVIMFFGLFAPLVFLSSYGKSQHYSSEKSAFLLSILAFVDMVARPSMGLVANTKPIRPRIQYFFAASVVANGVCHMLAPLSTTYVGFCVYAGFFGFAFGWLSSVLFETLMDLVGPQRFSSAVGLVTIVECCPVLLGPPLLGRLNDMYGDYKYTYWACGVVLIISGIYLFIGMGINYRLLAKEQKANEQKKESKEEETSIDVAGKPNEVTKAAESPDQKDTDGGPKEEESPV

Carbonic anhydrase 9 [8] = target: T5, Carbonic anhydrase 9 (Homo sapiens, UniProt Q16790)
Carbonic anhydrase 9 [9] = target: T5, Carbonic anhydrase 9; remark: listed apart in the source
[10] = target: T3, Monocarboxylate transporter 4; remark: listed apart in the source
[11] = target: T4, Monocarboxylate transporter 1; remark: listed apart in the source
[12] = target: T4, Monocarboxylate transporter 1; remark: listed apart in the source
[13] = target: T4, Monocarboxylate transporter 1; remark: listed apart in the source

T1 sequence (P19634 whole entry): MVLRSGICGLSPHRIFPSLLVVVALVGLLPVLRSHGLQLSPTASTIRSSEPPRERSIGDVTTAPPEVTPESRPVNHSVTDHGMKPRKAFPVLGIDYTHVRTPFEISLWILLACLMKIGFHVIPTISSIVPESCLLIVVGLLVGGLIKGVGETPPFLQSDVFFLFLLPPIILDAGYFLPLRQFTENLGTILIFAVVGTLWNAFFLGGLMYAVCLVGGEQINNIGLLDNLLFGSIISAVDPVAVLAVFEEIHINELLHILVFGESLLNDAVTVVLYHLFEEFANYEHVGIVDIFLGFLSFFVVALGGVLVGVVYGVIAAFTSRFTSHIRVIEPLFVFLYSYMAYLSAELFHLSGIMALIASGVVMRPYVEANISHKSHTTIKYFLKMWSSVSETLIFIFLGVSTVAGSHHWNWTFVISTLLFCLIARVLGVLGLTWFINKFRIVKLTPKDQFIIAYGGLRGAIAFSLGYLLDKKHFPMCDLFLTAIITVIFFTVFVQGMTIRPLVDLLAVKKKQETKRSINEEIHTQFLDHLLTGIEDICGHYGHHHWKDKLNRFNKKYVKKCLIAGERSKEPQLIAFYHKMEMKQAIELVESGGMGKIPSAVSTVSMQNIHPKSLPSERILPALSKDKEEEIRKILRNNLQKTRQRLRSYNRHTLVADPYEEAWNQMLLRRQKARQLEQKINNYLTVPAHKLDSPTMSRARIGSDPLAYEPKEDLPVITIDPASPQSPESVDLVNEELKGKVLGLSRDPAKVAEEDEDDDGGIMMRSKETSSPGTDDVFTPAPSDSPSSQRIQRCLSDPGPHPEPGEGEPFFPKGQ

SMILES: CC(=O)C(C)/C(C)=N/NC(=O)C12CC3CC(CC(C3)C1)C2 (centres undefined)
Ki (Carbonic anhydrase 2 [2]): 256 nM
IC50 (MCF7): 8350 nM
IC50 (HepG2): 7820 nM
IC50 (A549): 4390 nM

SMILES: CC(C)c1cc(=O)c2c(OCc3ccccc3CO)cc(OCc3ncccc3C(F)(F)F)cc2o1
EC50 (Raji): ≤ 100 nM

SMILES: O=c1ccc2cc(-n3cc(CNc4ccc(Br)cc4)nn3)ccc2o1
Ki (Carbonic anhydrase 2 [3]): > 50000 nM

SMILES: NC(N)=NC(=O)c1nc(Cl)c(N)cc1N
IC50 [4]: 2300 nM

SMILES: Cc1nc(-c2cc3ccccc3oc2=O)ccc1C(=O)/C=C/c1ccccc1
Ki (Carbonic anhydrase 2 [3]): > 100000 nM

SMILES: NC(N)=NC(=O)c1cc(Cl)c(N)cc1N
IC50 [4]: 16000 nM

SMILES: Cc1nc(C(=O)N=C(N)N)c(N)nc1N1CCCOCC1
IC50 [5]: 85 nM

SMILES: CC[C@](C)(OCc1cc(-c2cccc(OC3CC3)c2)n(-c2ccccc2N2CCC2)n1)C(=O)O
IC50 [6]: 0.36 nM
IC50 [7]: 64000 nM

SMILES: COc1ccc(CN2CCN(Cc3ccc(C(=O)N=C(N)N)cc3NC(=O)c3ccc(C(F)(F)F)cc3)CC2)c(OC)c1OC
IC50 [1]: 3530 nM

SMILES: C=CCN1CCN(Cc2c(O)ccc3c(C)cc(=O)oc23)CC1
Ki (Carbonic anhydrase 2 [2]): > 10000 nM

SMILES: NS(=O)(=O)c1ccc(CN/C=C/C(=O)/C=C/c2cc3ccccc3oc2=O)cc1
Ki (Carbonic anhydrase 2 [2]): 44 nM
Ki (Carbonic anhydrase 9 [8]): 8.9 nM

SMILES: CC(=O)c1ccc(-c2cc3ccccc3oc2=O)nc1C
Ki (Carbonic anhydrase 2 [3]): > 100000 nM
Ki (Carbonic anhydrase 9 [9]): 625 nM

SMILES: CC(C)c1cc(=O)c2c(OCc3ccccc3CO)cc(OCc3ccnc4ccccc34)cc2o1
EC50 (Raji): ≤ 100 nM

SMILES: CC(C)CN(C)c1nc(N)c(C(=O)N=C(N)N)nc1Cl [5-(N-METHYL-N-ISOBUTYL)AMILORIDE]
IC50 [5]: 174 nM

SMILES: CC(C)c1c(C(=O)Nc2ccccc2)c(-c2ccccc2)c(-c2ccc(F)cc2)n1CC[C@@H](O)C[C@@H](O)CC(=O)O [ATORVASTATIN CALCIUM]
IC50 [10]: ~138000 nM
IC50 [11]: > 210000 nM

SMILES: CC(C)(OCc1nn(Cc2ccccc2)c2ccccc12)C(=O)O [BINDARIT]
Ki [12]: > 500000 nM

SMILES: CCOC(=O)N1CCC(=C2c3ccc(Cl)cc3CCc3cccnc32)CC1 [LORATADINE]
IC50 [10]: > 300000 nM
IC50 [11]: ~100000 nM

SMILES: O=c1cc(-c2ccc(O)c(O)c2)oc2cc(O)cc(O)c12 [LUTEOLIN]
IC50 [13]: 410 nM

SMILES: O=c1c(O)c(-c2ccc(O)cc2O)oc2cc(O)cc(O)c12 [MORIN]
IC50 [13]: 6210 nM

SMILES: N=C(N)NC(=O)c1nc(Cl)c(N2CCCCCC2)nc1N [N,N-HEXAMETHYLENEAMILORIDE]
IC50 [4]: 3300 nM

SMILES: O=C(CCc1ccc(O)cc1)c1c(O)cc(O)cc1O [PHLORETIN]
IC50 [13]: 2570 nM

Results, then the molecule that gave them:

IC50 [1]: 1000 nM
SMILES: Cn1c(C(=O)N=C(N)N)cc2ccccc21

IC50 [1]: 120 nM
SMILES: CC(C)N1C(=O)C(C)(C)Oc2ccc(C(=O)N=C(N)N)cc21

IC50 [1]: 10 nM
SMILES: NC(N)=NC(=O)c1ccc2c(Br)cccc2c1

IC50 [4]: 25 nM
SMILES: Cc1ccc(-c2cc(C)c(C(=O)N=C(N)N)cc2S(C)(=O)=O)cc1

IC50 [4]: 100 nM and 800 nM
SMILES: CS(=O)(=O)c1cc(C(=O)N=C(N)N)ccc1N1CCCCC1

IC50 [4]: 2 nM
SMILES: Cc1cc(C(C)C)c(S(C)(=O)=O)cc1C(=O)N=C(N)N

IC50 [4]: 500 nM
SMILES: CCN(c1nc(N)c(C(=O)NC(=N)N)nc1Cl)C(C)C [5-(N-ETHYL-N-ISOPROPYL)AMILORIDE]

IC50 [4]: 800 nM and 200 nM
SMILES: CC(C)c1ccc(C(=O)NC(=N)N)cc1S(C)(=O)=O [CARIPORIDE]

IC50 [4]: 80 nM
SMILES: Cc1cc(-n2cccc2)c(S(C)(=O)=O)cc1C(=O)NC(=N)N [ENIPORIDE]

IC50 [4]: 113 nM
SMILES: Cc1cc(S(C)(=O)=O)c(S(C)(=O)=O)cc1C(=O)NC(=N)N [RIMEPORIDE]

From ChEMBL document CHEMBL5512616, “pH regulators and their inhibitors in tumor microenvironment” (Eur J Med Chem, 2024)
